The text below walks through data of ChEMBL document CHEMBL4330132, “5-Keto-3-cyano-2,4-diaminothiophenes as selective maternal embryonic leucine zipper kinase inhibitors” (Bioorg Med Chem Lett, 2019).

Assay [1] has as its target Ephrin type-A receptor 6 (Homo sapiens) (UniProt Q9UF33). The assay can be described thus: Binding affinity to wild-type human partial length EPHA6 (Y700 to E1046 residues) expressed in bacterial expression system assessed as residual binding level at 1 uM by Kinomescan method relative to control.
Assay [2] deals with Cyclin-dependent kinase 15 (Homo sapiens) (UniProt Q96Q40). In words: Binding affinity to wild-type human full length PFTAIRE2 (M1 to W384 residues) expressed in bacterial expression system assessed as residual binding level at 1 uM by Kinomescan method relative to control.
Assay [3] deals with Cyclin-dependent kinase 11A (Homo sapiens) (UniProt Q9UQ88). The assay can be described thus: Binding affinity to wild-type human partial length CDC2L2 (D391 to K730 residues) expressed in bacterial expression system assessed as residual binding level at 1 uM by Kinomescan method relative to control.
For assay [4], the target named is Serine/threonine-protein kinase MARK1 (Homo sapiens) (UniProt Q9P0L2). The assay can be described thus: Binding affinity to wild-type human partial length MARK1 (Q30 to T341 residues) expressed in bacterial expression system assessed as residual binding level at 1 uM by Kinomescan method relative to control.
The target of assay [5] is Rhodopsin kinase GRK7 (Homo sapiens) (UniProt Q8WTQ7). In words: Binding affinity to wild-type human full length GRK7 (M1 to L553 residues) expressed in mammalian expression system assessed as residual binding level at 1 uM by Kinomescan method relative to control.
Assay [6] deals with Interleukin-1 receptor-associated kinase 1 (Homo sapiens) (UniProt P51617). The assay can be described thus: Binding affinity to wild-type human partial length IRAK1 (R194 to S712 residues) expressed in mammalian expression system assessed as residual binding level at 1 uM by Kinomescan method relative to control.
Assay [7] deals with Phosphatidylinositol 4,5-bisphosphate 3-kinase catalytic subunit beta isoform (Homo sapiens) (UniProt P42338). The assay can be described thus: Binding affinity to wild-type human partial length PIK3CB (P118 to S1070 residues) expressed in mammalian expression system assessed as residual binding level at 1 uM by Kinomescan method relative to control.
Assay [8] addresses LIM domain kinase 1 (Homo sapiens) (UniProt P53667). In words: Binding affinity to wild-type human full length LIMK1 (M1 to D647 residues) expressed in bacterial expression system assessed as residual binding level at 1 uM by Kinomescan method relative to control.
Assay [9] has as its target Casein kinase I isoform alpha-like (Homo sapiens) (UniProt Q8N752). The assay can be described thus: Binding affinity to wild-type human full length CSNK1A1L (M1 to N337 residues) expressed in bacterial expression system assessed as residual binding level at 1 uM by Kinomescan method relative to control.
The target of assay [10] is 3-phosphoinositide-dependent protein kinase 1 (Homo sapiens) (UniProt O15530). The assay can be described thus: Binding affinity to wild-type human full length PDPK1 (M1 to Q556 residues) expressed in bacterial expression system assessed as residual binding level at 1 uM by Kinomescan method relative to control.
Assay [11] has as its target Serine/threonine-protein kinase pim-2 (Homo sapiens) (UniProt Q9P1W9). In words: Binding affinity to wild-type human partial length PIM2 (M1 to E291 residues) expressed in bacterial expression system assessed as residual binding level at 1 uM by Kinomescan method relative to control.
The target of assay [12] is Vascular endothelial growth factor receptor 3 (Homo sapiens) (UniProt P35916). The assay can be described thus: Binding affinity to wild-type human partial length FLT4 (E821 to E1196 residues) expressed in bacterial expression system assessed as residual binding level at 1 uM by Kinomescan method relative to control.
Assay [13] deals with Ephrin type-B receptor 1 (Homo sapiens) (UniProt P54762). The assay can be described thus: Binding affinity to wild-type human partial length EPHB1 (P589 to T911 residues) expressed in bacterial expression system assessed as residual binding level at 1 uM by Kinomescan method relative to control.
For assay [14], the target named is Muscle, skeletal receptor tyrosine-protein kinase (Homo sapiens) (UniProt O15146). In words: Binding affinity to wild-type human partial length MUSK (M553 to V869 residues) expressed in bacterial expression system assessed as residual binding level at 1 uM by Kinomescan method relative to control.
The target of assay [15] is Dual specificity protein kinase CLK4 (Homo sapiens) (UniProt Q9HAZ1). The assay can be described thus: Binding affinity to wild-type human partial length CLK4 (R135 to K481 residues) expressed in bacterial expression system assessed as residual binding level at 1 uM by Kinomescan method relative to control.
Assay [16] has as its target Dual specificity testis-specific protein kinase 1 (Homo sapiens) (UniProt Q15569). In words: Binding affinity to wild-type human full length TESK1 (R37 to S626 residues) expressed in bacterial expression system assessed as residual binding level at 1 uM by Kinomescan method relative to control.
Assay [17] concerns the target Ribosomal protein S6 kinase alpha-3 (Homo sapiens) (UniProt P51812). In words: Binding affinity to wild-type human partial length N-terminal RSK2 kinase domain 1 (M1 to D394 residues) expressed in mammalian expression system assessed as residual binding level at 1 uM by Kinomescan method relative to control.
Assay [18] deals with Receptor-type tyrosine-protein kinase FLT3 (Homo sapiens), P36888 [D835Y]. In words: Binding affinity to human partial length FLT3 D835Y mutant (Q580 to Y969 residues) expressed in bacterial expression system assessed as residual binding level at 1 uM by Kinomescan method relative to control.
The target of assay [19] is Serine/threonine-protein kinase Sgk3 (Homo sapiens) (UniProt Q96BR1). In words: Binding affinity to wild-type human partial length SGK3 (M119 to L496 residues) expressed in mammalian expression system assessed as residual binding level at 1 uM by Kinomescan method relative to control.
Assay [20] concerns the target Tyrosine-protein kinase JAK3 (Homo sapiens) (UniProt P52333). In words: Binding affinity to wild-type human partial length JAK3 JH1 catalytic domain (I781 to S1124 residues) expressed in mammalian expression system assessed as residual binding level at 1 uM by Kinomescan method relative to control.
Assay [21] concerns the target Rhodopsin kinase GRK1 (Homo sapiens) (UniProt Q15835). The assay can be described thus: Binding affinity to wild-type human full length GRK1 (M1 to S563 residues) expressed in mammalian expression system assessed as residual binding level at 1 uM by Kinomescan method relative to control.
The subject of assay [22] is Leucine-rich repeat serine/threonine-protein kinase 2 (Homo sapiens), Q5S007 [G2019S]. In words: Binding affinity to human partial length LRRK2 G2019S mutant (H970 to E2527 residues) expressed in mammalian expression system assessed as residual binding level at 1 uM by Kinomescan method relative to control.
Assay [23] addresses Mitogen-activated protein kinase 7 (Homo sapiens) (UniProt Q13164). In words: Binding affinity to wild-type human partial length ERK5 (M1 to A409 residues) expressed in bacterial expression system assessed as residual binding level at 1 uM by Kinomescan method relative to control.
Assay [24] concerns the target Myosin-IIIb (Homo sapiens) (UniProt Q8WXR4). In words: Binding affinity to wild-type human partial length MYO3B (M1 to D357 residues) expressed in bacterial expression system assessed as residual binding level at 1 uM by Kinomescan method relative to control.

Cyclin-dependent kinase 15 (Homo sapiens), sequence (Q96Q40 whole entry, the tested form may be a part): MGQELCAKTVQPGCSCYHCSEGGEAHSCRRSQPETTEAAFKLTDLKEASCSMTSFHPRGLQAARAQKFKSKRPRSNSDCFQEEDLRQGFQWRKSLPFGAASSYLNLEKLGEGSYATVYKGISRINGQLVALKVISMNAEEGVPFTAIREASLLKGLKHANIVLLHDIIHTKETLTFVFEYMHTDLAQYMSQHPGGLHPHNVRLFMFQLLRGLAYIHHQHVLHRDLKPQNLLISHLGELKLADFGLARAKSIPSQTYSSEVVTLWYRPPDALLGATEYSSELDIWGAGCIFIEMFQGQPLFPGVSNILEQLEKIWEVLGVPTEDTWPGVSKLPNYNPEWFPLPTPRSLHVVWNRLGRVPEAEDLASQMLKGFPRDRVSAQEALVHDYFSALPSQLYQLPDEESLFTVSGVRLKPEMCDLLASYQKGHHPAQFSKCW
Phosphatidylinositol 4,5-bisphosphate 3-kinase catalytic subunit beta isoform (Homo sapiens), sequence (P42338 whole entry, looked up, the tested form may be a part, canonical isoform): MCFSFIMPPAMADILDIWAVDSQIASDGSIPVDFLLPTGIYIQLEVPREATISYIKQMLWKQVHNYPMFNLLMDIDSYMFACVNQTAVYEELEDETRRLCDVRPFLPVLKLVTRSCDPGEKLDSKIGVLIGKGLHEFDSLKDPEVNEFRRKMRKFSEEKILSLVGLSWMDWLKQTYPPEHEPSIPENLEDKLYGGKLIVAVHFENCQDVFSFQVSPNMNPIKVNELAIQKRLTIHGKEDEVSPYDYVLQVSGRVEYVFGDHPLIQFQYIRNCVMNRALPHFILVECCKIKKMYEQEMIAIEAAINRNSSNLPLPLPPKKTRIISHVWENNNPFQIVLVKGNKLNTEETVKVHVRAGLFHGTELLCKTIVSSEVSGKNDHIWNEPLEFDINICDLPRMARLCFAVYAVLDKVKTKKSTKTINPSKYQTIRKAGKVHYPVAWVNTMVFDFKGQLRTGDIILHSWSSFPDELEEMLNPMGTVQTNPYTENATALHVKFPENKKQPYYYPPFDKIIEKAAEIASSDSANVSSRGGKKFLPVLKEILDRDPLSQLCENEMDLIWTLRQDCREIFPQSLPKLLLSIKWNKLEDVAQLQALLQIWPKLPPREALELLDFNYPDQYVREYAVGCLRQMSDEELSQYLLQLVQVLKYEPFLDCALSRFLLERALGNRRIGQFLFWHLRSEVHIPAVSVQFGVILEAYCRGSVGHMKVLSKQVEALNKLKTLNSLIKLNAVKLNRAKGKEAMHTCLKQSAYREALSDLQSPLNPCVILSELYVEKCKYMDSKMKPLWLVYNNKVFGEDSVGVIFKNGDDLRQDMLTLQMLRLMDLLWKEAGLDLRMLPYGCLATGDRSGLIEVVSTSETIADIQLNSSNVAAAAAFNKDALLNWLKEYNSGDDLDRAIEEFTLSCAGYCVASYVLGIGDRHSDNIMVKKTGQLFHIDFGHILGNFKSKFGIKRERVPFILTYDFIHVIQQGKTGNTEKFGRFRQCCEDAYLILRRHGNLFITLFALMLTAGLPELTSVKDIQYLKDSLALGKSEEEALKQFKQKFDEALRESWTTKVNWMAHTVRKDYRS
Mitogen-activated protein kinase 7 (Homo sapiens), sequence (Q13164 2-816 limits assumed): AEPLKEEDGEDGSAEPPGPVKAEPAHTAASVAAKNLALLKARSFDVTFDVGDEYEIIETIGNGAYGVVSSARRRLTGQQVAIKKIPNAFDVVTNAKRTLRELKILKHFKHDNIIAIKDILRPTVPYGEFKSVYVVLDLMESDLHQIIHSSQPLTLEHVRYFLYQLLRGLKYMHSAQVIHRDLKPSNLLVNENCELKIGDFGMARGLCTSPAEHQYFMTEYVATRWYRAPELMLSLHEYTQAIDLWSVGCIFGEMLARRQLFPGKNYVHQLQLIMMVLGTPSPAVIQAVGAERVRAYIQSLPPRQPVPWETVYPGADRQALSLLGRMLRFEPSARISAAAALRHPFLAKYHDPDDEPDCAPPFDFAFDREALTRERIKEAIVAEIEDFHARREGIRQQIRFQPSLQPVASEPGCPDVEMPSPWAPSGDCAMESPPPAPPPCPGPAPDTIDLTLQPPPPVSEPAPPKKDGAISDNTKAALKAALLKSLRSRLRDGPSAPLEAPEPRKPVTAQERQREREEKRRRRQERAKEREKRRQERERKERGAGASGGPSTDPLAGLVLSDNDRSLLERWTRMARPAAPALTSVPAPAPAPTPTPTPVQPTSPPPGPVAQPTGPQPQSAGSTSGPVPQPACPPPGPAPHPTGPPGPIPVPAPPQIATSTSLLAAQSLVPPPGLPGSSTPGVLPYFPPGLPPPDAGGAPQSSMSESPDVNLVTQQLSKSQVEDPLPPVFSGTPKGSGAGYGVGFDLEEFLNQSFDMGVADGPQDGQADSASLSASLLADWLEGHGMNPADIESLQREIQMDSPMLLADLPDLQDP
Myosin-IIIb (Homo sapiens), sequence (Q8WXR4 whole entry, the tested form may be a part): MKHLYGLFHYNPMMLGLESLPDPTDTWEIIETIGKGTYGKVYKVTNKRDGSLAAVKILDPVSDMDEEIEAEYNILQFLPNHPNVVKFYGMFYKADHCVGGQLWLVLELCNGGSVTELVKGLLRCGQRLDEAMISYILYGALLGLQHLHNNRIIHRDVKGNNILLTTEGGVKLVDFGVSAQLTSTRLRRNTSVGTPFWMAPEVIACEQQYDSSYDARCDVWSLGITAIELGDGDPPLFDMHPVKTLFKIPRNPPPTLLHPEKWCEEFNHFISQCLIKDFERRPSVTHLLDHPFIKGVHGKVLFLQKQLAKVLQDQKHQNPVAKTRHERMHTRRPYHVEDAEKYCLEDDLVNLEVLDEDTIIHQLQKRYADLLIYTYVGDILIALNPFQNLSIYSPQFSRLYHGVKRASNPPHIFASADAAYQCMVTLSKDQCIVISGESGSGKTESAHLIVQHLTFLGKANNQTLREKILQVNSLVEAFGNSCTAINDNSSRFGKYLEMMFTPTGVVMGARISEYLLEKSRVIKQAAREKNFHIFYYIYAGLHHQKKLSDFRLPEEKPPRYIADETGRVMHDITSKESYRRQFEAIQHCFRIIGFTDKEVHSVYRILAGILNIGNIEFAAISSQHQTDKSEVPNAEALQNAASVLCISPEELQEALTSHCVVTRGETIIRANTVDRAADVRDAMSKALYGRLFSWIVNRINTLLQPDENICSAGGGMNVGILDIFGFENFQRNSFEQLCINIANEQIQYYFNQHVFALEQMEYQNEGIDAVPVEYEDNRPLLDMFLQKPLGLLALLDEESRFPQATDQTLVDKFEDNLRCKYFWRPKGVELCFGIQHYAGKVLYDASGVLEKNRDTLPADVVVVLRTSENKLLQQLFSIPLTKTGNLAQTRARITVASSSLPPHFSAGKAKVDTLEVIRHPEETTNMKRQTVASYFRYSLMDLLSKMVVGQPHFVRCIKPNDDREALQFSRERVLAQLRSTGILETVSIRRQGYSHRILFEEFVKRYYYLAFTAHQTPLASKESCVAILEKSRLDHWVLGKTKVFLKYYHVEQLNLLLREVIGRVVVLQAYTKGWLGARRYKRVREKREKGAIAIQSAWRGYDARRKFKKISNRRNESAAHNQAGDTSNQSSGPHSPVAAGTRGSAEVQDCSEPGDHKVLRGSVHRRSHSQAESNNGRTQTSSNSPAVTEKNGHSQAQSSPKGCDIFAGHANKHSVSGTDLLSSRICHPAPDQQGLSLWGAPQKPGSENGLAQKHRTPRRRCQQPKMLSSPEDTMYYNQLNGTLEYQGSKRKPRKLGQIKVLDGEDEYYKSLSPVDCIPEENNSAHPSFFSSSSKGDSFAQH
Dual specificity testis-specific protein kinase 1 (Homo sapiens), sequence (Q15569 whole entry, looked up, the tested form may be a part): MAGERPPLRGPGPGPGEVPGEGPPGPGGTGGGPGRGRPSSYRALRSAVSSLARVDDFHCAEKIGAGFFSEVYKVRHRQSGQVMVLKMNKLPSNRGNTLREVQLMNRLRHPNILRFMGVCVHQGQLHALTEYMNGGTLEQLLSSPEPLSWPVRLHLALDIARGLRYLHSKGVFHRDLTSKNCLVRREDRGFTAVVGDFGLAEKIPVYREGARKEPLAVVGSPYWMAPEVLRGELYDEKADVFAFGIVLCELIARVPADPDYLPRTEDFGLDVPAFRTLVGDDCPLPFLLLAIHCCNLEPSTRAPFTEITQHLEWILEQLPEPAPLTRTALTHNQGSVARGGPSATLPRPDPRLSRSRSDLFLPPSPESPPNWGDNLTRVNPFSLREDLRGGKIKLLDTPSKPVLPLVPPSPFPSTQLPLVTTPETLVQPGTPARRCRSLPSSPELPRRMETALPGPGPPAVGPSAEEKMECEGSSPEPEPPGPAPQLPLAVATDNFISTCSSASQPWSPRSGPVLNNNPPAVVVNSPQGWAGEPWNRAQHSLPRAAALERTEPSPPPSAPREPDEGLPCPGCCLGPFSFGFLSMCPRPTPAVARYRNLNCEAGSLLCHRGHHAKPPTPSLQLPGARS
Cyclin-dependent kinase 11A (Homo sapiens), sequence (Q9UQ88 whole entry, the tested form may be a part): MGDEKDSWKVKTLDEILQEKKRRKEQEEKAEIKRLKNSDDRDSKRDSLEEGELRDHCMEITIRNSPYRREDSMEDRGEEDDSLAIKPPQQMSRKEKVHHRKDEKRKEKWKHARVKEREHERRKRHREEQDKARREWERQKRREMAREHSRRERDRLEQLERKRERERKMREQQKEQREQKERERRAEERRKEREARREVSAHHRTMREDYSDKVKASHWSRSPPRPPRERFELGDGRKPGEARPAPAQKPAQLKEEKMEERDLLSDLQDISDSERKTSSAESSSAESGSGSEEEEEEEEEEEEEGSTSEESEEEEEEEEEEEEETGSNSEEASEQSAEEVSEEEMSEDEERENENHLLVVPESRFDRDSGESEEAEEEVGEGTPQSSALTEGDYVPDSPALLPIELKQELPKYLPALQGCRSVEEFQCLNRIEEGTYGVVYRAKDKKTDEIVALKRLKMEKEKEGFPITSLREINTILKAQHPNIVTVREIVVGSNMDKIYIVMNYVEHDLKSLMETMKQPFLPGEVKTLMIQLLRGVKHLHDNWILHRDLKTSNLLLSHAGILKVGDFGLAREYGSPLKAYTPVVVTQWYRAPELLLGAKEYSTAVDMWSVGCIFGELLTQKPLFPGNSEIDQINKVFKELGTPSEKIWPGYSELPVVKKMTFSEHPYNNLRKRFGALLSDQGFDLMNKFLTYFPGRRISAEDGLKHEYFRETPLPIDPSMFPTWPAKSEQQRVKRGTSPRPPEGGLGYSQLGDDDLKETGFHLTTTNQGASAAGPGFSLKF

With `CC(C)Nc1sc(C(=O)c2ccc(Cl)s2)c(N)c1C#N`, the Activity in assay [1] was 86%; in assay [2] it was 79%; in [3] it was 100%; in [4], 67%; in [5] it was 95%; in assay [6] it was 77%. Further, the Activity in [7] stood at 90%; in assay [8] it was 55%; in assay [9] it was 91%; in [10], 84%; in [11] it was 100%; in assay [12], 50%. The Activity in assay [13] is 96%; in [14], 76%; in assay [15], 88%; in [16] it was 94%; in assay [17] it was 99%; in assay [18], 59%. The Activity in [19] came out at 100%; in [20] it was 80%; in assay [21], 100%; in assay [22] it was 79%; in [23] it was 100%; in assay [24], 98%.
